From ChEMBL document CHEMBL1201862, “PubChem BioAssay data set” (2004)
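Interpolation was linear, between the two tested concentrations surrounding the appropriate level; five concentrations were tested over 48 hours in 96-well plates. Here, GI50 denotes the concentration required for 50% inhibition of growth.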 Activity calls are given as the source filed them. No stated cut-off is given here; in the data, active = GI50 up to about 1.1 µM and inactive = higher.

What was measured:
Test in all cases: DTP human tumour cell line panel, 48 h
786-0 = system: 786-0
A498 = system: A498
A549 = system: A549
ACHN = system: ACHN
BT-549 = system: BT-549
CAKI-1 = system: CAKI-1
CCRF-CEM = system: CCRF-CEM
COLO 205 = system: COLO 205
DU-145 = system: DU-145
EKVX = system: EKVX
HCC 2998 = system: HCC 2998
HCT-116 = system: HCT-116
HL-60 = system: HL-60
HOP-62 = system: HOP-62
HOP-92 = system: HOP-92
HT-29 = system: HT-29
Hs-578T = system: Hs-578T
K562 = system: K562
KM12 = system: KM12
LOX IMVI = system: LOX IMVI
M14 = system: M14
MCF7 = system: MCF7
MDA-MB-231 = system: MDA-MB-231
MDA-MB-435 = system: MDA-MB-435
MDA-N = system: MDA-N
MOLT-4 = system: MOLT-4
Malme-3M = system: Malme-3M
NCI-H226 = system: NCI-H226
NCI-H23 = system: NCI-H23
NCI-H460 = system: NCI-H460
NCI-H522 = system: NCI-H522
NCI/ADR-RES = system: NCI/ADR-RES
OVCAR-4 = system: OVCAR-4
OVCAR-5 = system: OVCAR-5
OVCAR-8 = system: OVCAR-8
PC-3 = system: PC-3
RPMI-8226 = system: RPMI-8226
RXF 393 = system: RXF 393
SF-295 = system: SF-295
SF-539 = system: SF-539
SK-MEL-28 = system: SK-MEL-28
SK-MEL-2 = system: SK-MEL-2
SK-MEL-5 = system: SK-MEL-5
SK-OV-3 = system: SK-OV-3
SN12C = system: SN12C
SNB-19 = system: SNB-19
SR = system: SR
SW-620 = system: SW-620
U-251 = system: U-251
UACC-257 = system: UACC-257
UACC-62 = system: UACC-62

Measured: GI50

CC(C)[N+]([O-])(CCCNc1c2ccccc2nc2cccc([N+](=O)[O-])c12)C(C)C
active: 786-0 46.7 nM | A498 < 45.2 nM | A549 < 28.2 nM | ACHN < 44.1 nM | BT-549 < 39.5 nM | CAKI-1 492 nM | CCRF-CEM < 41.2 nM | COLO 205 < 19 nM | DU-145 < 26 nM | EKVX < 36.7 nM | HCC 2998 < 10 nM | HCT-116 < 20.4 nM | HL-60 < 42.8 nM | HOP-62 52.5 nM | HOP-92 < 35.5 nM | HT-29 < 20.2 nM | Hs-578T < 48.1 nM | K562 < 35.5 nM | KM12 65 nM | LOX IMVI 61.9 nM | M14 34.7 nM | MCF7 < 27.2 nM | MDA-MB-231 < 10 nM | MDA-MB-435 < 32.5 nM | MDA-N < 34.2 nM | MOLT-4 < 18.1 nM | Malme-3M < 41 nM | NCI-H226 < 45.6 nM | NCI-H23 < 20.6 nM | NCI-H460 60 nM | NCI-H522 29.4 nM | NCI/ADR-RES 581 nM | OVCAR-4 153 nM | OVCAR-5 < 39.5 nM | OVCAR-8 < 45.8 nM | PC-3 < 47.3 nM | RPMI-8226 < 17.9 nM | RXF 393 172 nM | SF-295 < 41.2 nM | SF-539 47 nM | SK-MEL-28 < 10 nM | SK-MEL-2 234 nM | SK-MEL-5 < 16.7 nM | SK-OV-3 262 nM | SN12C 55.1 nM | SNB-19 72.6 nM | SR 14.2 nM | SW-620 < 25.8 nM | U-251 < 45.3 nM | UACC-257 64 nM | UACC-62 148 nM
